# Where two headings read alike, the source gives them in different places.
# Experiments:
# H3K27me3 mark = test: H3K27me3 Alpha Hela Assay (AlphaLISA); format: cell-based; settings: Hela cells, 72 hrs; read-out: EZH2 Cell H3K27me3 Alpha HeLa (EC50 K27me3)
# Summary of the method: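 HeLa cells at 1,000/well were treated with ten 3-fold compound doses for 72 h at 37 °C. After lysis and histone extraction, H3K27me3 was detected by AlphaLISA with anti-K27me3 acceptor beads, biotinylated anti-H3 (C-ter) antibody (3 nM final) and streptavidin donor beads (20 μg/mL final). Signals were normalized to DMSO and curve-fitted for EC50.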
# [1] = In vitro metabolism, human liver microsomes; format: in vitro ADME; settings: 10 μM compound, 0.7 mg protein/mL, read-out: intrinsic clearance
# Method: (§1) The in vitro metabolism of compound 21 was evaluated by disappearance of compound in mouse, rat, dog and human liver microsomes at 10 μM compound concentration.
# (§2) Data is expressed in μL/min/mg protein.
# [2] = In vitro metabolism, mouse liver microsomes; format: in vitro ADME; settings: 10 μM compound, 0.7 mg protein/mL, read-out: intrinsic clearance
# Method: as §1, §2
# PRC2 containing wt EZH2 = target: T1, PRC2 containing wt EZH2 (Homo sapiens, UniProt Q15910); test: EZH2 pep BSA Brij 4.0 LowE (IC50): 3H-SAM incorporation into biotinylated H3 peptide; format: biochemical; settings: read-out: EZH2 pep BSA Brij 4.0 LowE (IC50); 20 pM PRC2 wt EZH2, 0.9 μM 3H-SAM, biotinylated H3 peptide substrate, 2 μM H3K27me3 activating peptide
# T1 construct: made in house
# T1 sequence (Q15910 whole entry): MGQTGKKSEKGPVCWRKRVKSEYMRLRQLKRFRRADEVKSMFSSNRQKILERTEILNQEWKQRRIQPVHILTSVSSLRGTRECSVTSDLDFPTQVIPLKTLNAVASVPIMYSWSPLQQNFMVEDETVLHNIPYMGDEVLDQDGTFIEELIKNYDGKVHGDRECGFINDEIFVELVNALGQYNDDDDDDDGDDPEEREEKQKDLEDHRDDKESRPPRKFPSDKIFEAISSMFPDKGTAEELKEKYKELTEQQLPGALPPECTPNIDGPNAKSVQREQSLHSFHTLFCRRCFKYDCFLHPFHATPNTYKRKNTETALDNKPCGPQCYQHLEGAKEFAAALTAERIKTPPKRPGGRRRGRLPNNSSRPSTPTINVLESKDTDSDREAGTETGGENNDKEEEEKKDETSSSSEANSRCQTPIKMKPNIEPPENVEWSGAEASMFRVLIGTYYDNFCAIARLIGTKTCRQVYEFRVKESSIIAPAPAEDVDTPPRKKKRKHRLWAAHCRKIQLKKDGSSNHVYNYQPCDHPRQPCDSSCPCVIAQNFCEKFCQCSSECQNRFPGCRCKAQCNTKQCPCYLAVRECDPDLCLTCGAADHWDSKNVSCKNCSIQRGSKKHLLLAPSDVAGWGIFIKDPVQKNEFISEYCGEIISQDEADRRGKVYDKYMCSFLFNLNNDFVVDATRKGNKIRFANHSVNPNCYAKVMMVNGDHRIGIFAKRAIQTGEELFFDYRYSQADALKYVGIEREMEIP
# T1 sequence (O75530 whole entry partner): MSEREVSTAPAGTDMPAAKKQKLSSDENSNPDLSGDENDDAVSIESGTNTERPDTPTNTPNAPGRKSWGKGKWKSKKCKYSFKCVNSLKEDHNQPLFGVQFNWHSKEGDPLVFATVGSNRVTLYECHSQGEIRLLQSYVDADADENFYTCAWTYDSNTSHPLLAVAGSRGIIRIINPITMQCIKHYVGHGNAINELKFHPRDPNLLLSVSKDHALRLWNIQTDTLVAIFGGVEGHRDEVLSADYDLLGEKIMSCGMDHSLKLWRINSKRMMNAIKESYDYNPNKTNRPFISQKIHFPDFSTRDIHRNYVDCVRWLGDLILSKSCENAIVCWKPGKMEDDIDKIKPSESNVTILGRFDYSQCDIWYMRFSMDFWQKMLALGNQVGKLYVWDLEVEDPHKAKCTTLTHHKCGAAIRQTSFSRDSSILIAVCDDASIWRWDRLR
# T1 sequence (Q15022 whole entry partner): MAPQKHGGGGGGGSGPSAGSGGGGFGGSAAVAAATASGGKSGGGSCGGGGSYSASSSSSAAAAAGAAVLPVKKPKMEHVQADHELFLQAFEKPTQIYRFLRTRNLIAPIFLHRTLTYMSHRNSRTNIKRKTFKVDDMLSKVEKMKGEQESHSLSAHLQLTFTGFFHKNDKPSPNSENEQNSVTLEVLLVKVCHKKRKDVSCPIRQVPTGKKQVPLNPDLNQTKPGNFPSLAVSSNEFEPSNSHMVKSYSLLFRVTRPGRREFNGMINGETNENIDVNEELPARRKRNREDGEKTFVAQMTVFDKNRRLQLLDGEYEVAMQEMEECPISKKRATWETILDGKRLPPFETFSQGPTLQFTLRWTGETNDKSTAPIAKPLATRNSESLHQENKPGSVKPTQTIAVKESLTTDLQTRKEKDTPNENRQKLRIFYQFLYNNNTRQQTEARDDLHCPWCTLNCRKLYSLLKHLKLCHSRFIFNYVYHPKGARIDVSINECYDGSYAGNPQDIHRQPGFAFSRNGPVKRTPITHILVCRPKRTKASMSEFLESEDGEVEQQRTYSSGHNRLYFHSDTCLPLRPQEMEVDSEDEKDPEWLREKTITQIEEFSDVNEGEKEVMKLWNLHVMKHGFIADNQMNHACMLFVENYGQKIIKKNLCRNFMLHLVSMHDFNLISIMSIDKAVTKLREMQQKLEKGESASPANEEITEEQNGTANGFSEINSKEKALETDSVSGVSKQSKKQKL
# T1 sequence (Q09028 whole entry partner): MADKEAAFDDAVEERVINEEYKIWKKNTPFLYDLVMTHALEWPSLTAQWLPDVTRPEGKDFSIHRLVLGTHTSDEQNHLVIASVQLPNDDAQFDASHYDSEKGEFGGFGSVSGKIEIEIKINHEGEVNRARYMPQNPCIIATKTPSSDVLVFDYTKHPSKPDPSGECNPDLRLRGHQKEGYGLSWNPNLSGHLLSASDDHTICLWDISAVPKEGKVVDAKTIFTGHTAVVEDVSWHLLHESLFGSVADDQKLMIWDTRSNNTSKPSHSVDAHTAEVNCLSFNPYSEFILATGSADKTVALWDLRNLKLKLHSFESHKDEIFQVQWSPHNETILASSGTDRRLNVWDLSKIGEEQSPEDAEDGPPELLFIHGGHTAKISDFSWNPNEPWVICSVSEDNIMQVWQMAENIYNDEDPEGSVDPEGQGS
# T1 sequence (Q6ZN18 whole entry partner): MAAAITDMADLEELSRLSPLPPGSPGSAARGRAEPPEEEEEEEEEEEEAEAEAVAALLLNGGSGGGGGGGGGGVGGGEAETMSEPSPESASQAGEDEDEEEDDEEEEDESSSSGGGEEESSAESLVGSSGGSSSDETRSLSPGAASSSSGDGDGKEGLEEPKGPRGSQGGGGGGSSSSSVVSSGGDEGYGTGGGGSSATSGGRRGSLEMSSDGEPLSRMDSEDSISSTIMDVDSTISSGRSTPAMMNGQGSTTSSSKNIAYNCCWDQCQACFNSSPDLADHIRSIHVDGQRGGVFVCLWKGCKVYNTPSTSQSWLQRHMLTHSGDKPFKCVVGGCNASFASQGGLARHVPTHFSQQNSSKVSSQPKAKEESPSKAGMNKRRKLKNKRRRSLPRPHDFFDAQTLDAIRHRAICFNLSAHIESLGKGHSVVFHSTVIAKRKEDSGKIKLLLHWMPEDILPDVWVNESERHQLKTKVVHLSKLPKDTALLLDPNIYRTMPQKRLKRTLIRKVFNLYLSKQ
# Summary of the method: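 PRC2 (wt EZH2, 20 pM) pre-incubated 120 min with compound, 0.9 μM 3H-SAM and 2 μM H3K27me3 activating peptide in pH 8.5 Tris/DTT/Brij-35/0.1% BSA, 0.8% DMSO. Biotinylated H3K27me1 peptide added (2 μM stock), 5 h at room temperature, EDTA/SAH quench, streptavidin Flashplate capture. IC50 from four-parameter fit versus full-activity and no-enzyme controls.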
# [3] = Plasma-tissue distribution and glucuronide formation in BALB/C mice; format: in vivo; settings: mouse, male BALB/C mice, oral gavage 100 mg/kg, 1 hour after dosing
# Method: 1 h after dosing a group of mice (3 mice/group) via oral gavage at 100 mg/kg of compound 21, blood is collected from the submandibular or saphenous vein (˜30 μL) and tissue is collected from the biceps femoris (both sides). After tissue preparation and homogenization, plasma and tissue samples are assayed for parent drug using LC/MS/MS methodologies with internal standard. The glucuronide metabolites (parent mass +176) are also monitored via LC/MS/MS and compared to the internal standard for quantitation.
# [4] = In vitro metabolism, rat liver microsomes; format: in vitro ADME; settings: 10 μM compound, 0.7 mg protein/mL, read-out: intrinsic clearance
# Method: as §1, §2
# [5] = Mean plasma and tumor concentration, 7-day study in SCID mice; format: in vivo; settings: mouse, po, female SCID mice
# [6] = In vitro metabolism, dog liver microsomes; format: in vitro ADME; settings: 10 μM compound, 0.7 mg protein/mL, read-out: intrinsic clearance
# Method: as §1, §2
smiles,measurement,setting,value
"COc1cc(C)[nH]c(=O)c1CNC(=O)c1c(C)n(C(C)C2CCN(C)C(C(F)(F)F)C2)c2ccccc12 (single isomer, unassigned) [Compound 21, N-((4-methoxy-6-methyl-2-oxo-1,2-dihydropyridin-3-yl)methyl)-2-methyl-1-(1-(1-methyl-2-(trifluoromethyl)piperidin-4-yl)ethyl)-1H-indole-3-carboxamide]",EC50,H3K27me3 mark,< 400 nM
same,microsomal CLint at 10 μM,[1],39 µL/min/mg
same,microsomal CLint at 10 μM,[2],55 µL/min/mg
same,IC50,PRC2 containing wt EZH2,< 100 nM
same,concentration at 1 h,"[3]; muscle (biceps femoris), biceps femoris, read-out: Conc. in Muscle",7240 ng/g
same,Kp at 1 h,"[3]; muscle/plasma, read-out: Ratio Muscle/Plasma",0.86
same,concentration at 1 h,"[3]; plasma, read-out: Conc. in Plasma",8370 ng/mL
same,microsomal CLint at 10 μM,[4],35 µL/min/mg
same,concentration at 7 day,"[5]; plasma, 100 mg/kg P.O. BID, read-out: Mean Plasma Conc",280 ng/mL
same,concentration at 7 day,"[5]; plasma, 200 mg/kg P.O. BID, read-out: Mean Plasma Conc",1600 ng/mL
same,concentration at 7 day,"[5]; tumor, 100 mg/kg P.O. BID, read-out: Mean Tumor Conc",451 ng/g
same,concentration at 7 day,"[5]; tumor, 200 mg/kg P.O. BID, read-out: Mean Tumor Conc",693 ng/g
same,microsomal CLint at 10 μM,[6],35 µL/min/mg
